The text below walks through data of patent US20210052547A1 (priority 2016, published 2021).

Series [1] relates to calcium-oxalate kidney stone murine model. As to the kind of experiment: calcium-oxalate kidney stone murine model (calcium chloride and hydroxyproline in drinking water). The class given is in vivo, rat. To be noted: Stiripentol 4 g/L in drinking water (about 150 mg/Kg), 4 months, versus controls. The text has this: A calcium-oxalate kidney stone murine model has been generated. […] The rats have been exposed for 4 month to this diet. […] Rats have been sacrificed at the end of the protocol and kidneys have been removed for analyses.

Series [2] addresses lactate dehydrogenase 1 (LDH-1) (Homo sapiens, UniProt P07195). The following applies: in neurons; cited from earlier work.
In series [3] the target is CYP1A2 (Homo sapiens, UniProt P05177). To be noted: cited from earlier work.
Series [4] relates to uptake of gamma-aminobutyric acid (GABA). The following applies: cited from earlier work.
Series [5] concerns the target CYP3A4 (Homo sapiens, UniProt P08684). To be noted: cited from earlier work.
Series [6] deals with rats exposed to ethylene glycol. As to the kind of experiment: murine model of ethylene glycol poisoning. The class given is in vivo, rat. As to the method:
A murine model of ethylene glycol poisoning has been prepared by giving 6 g/kg ethylene glycol orally once to twelve adult Sprague-Dawley rats (single oral administration).
Rats have been sacrificed 48 hours after ethylene glycol intake, blood and urine parameters have been collected and kidneys have been removed for histopathological analyses.

Series [7] deals with lactate dehydrogenase 5 (LDH-5) (Homo sapiens, UniProt P00338). The following applies: in neurons; cited from earlier work.

Sequence of lactate dehydrogenase 1 (LDH-1) (P07195 2-334 limits assumed): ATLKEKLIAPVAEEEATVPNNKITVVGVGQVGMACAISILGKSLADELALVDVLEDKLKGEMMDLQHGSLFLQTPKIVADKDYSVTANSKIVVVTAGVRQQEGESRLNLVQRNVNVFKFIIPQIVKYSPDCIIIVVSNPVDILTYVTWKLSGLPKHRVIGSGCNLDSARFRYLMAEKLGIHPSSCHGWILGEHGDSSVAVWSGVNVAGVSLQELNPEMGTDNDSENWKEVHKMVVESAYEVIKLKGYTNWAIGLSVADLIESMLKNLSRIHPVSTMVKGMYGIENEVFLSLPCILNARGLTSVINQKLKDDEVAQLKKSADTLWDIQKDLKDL
Sequence of CYP1A2 (P05177 whole entry): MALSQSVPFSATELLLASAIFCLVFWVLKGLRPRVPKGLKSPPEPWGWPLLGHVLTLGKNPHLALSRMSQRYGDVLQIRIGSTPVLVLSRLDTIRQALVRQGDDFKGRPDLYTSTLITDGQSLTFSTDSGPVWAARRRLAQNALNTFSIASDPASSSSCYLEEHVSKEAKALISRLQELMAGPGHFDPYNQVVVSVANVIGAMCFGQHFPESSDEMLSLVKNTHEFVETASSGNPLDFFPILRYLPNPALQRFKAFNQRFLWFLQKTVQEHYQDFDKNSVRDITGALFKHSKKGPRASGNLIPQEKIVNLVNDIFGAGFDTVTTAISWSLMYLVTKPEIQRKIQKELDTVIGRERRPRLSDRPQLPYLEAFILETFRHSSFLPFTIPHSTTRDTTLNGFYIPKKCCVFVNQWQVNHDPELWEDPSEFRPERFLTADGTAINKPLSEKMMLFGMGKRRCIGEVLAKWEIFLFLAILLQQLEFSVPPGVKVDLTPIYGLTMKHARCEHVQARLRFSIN
Sequence of CYP3A4 (P08684 whole entry): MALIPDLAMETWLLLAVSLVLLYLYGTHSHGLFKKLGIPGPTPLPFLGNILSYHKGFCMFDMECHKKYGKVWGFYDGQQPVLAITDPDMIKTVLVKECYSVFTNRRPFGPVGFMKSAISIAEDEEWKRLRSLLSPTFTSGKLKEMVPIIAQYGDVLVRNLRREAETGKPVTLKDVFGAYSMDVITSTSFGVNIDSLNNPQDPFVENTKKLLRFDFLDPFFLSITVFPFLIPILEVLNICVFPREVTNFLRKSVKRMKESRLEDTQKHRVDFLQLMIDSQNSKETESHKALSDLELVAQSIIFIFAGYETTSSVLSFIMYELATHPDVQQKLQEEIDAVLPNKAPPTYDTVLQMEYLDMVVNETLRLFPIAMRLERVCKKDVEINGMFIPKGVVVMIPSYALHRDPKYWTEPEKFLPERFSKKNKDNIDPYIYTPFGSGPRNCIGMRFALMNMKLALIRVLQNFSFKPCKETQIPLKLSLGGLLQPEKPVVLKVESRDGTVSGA

For the molecule `CC(C)(C)C(O)/C=C/c1ccc2c(c1)OCO2` (racemic) [Stiripentol, 4,4-dimethyl-1-[(3,4-methylenedioxy)-phenyl]-1-penten-3-ol], in series [1], the “calcium oxalate crystals in urine” value was “less calcium oxalate crystals in urine”. In addition, the “renal function assessed by serum creatinine levels” value in series [1] (p=0.002) was “preserved renal function”; in series [6] (ethylene glycol intoxicated rats, Stiripentol 300 mg/kg then 4 g/L in drinking water, 48 hours, p=0.009), “remarkably less impaired”. Further, the “inhibition of pyruvate to lactate conversion by LDH-1” value in series [2] is “inhibit”. Also, the “inhibition of CYP1A2” value in series [3] was “inhibitor”. In addition, the “inhibition of the uptake of GABA” value in series [4] is “inhibits”. For the same molecule, the “inhibition of CYP3A4” value in series [5] was “inhibitor”. Further, the “calcium oxalate crystals in kidneys (histopathology, kidney section coverage)” value in series [6] (6 g/kg ethylene glycol orally once, Stiripentol 300 mg/kg at intoxication and 4 g/L in drinking water days 1 and 2, 48 hours, p=0.0046) is “much less crystals”. In addition, the “urinary oxalate excretion induced by ethylene glycol poisoning” value in series [6] (Stiripentol at therapeutic range) is given as “decreases urinary oxalate excretion”.

Consider `C/C=C/c1ccc2c(c1)OCO2` [Isosafrole, 3,4-methylenedioxyphenyl-1-propene], for which the “inhibition of pyruvate to lactate conversion by LDH-1” value in series [2] is “inhibit”. For the same molecule, in series [7], the “inhibition of pyruvate to lactate conversion by LDH-5” value is “inhibit”.
